{"source": "patent US6902881B2", "about": "“Compounds and methods for regulating cell differentiation” (priority 2000, dated 2005)", "key": {"HT 29 Cancer Cells": {"tested_on": "HT 29 Cancer Cells", "assay": "Distribution of cell cycle stages of HT 29 cancer cells", "type": "cell-based, human", "text": "The presence of the CDK-inhibitors leads to under phosphorylation of Rb protein. As a consequence, the cells are removed from cycling and the number of cells in G1 increases while those in S and G2 decrease, compared with control, untreated ones. This response of cell cycle kinetics is quite similar to those reported for other agents known to cause a G1, block e.g. troglitazone. Ultimately, proliferation ceases within one to three days. […] This decreased rate persists even after the tetrapyrrole is no longer added to the incubation medium. Finally, twelve days after its removal, proliferation resumes at a brisker rate dividing every 41 hrs. This rate is still slower than that of the control cells that double every 18 hrs. […] In contrast, cellular survival or proliferation is not affected by amounts lower than 10^−7 M biliverdin (not shown)."}, "[1]": {"tested_on": "thyroid cancer (Th) cells", "assay": "Proliferation of thyroid carcinoma cells", "type": "cell-based, human"}, "liposarcoma (LS) cells": {"tested_on": "liposarcoma (LS) cells", "assay": "Proliferation of liposarcoma cells", "type": "cell-based, human"}, "[2]": {"tested_on": "Colon Adenocarcinoma (HT 29) cells", "assay": "Cellular triacyl glycerol (TAG) content, colon adenocarcinoma", "type": "cell-based, human", "details": "biliverdin 4 × 10^−7 M", "protocol": "Expression of differentiation markers. Carcinoembryogenic antigen in cell supernatants collected each three days was assayed by standard ELISA determinations using an IMX assay for quantitative measurement of the antigen. Cellular triacyl glycerol content was measured spectrophotometrically by enzymatic hydrolysis and analysis of the amount of glycerol released using a standard assay, Triglyceride (INT) 10 (Sigma Diagnostics). Cellular alkaline phosphatase activity was determined by measuring the fluorescence change induced by the hydrolysis of 4-methylumbelliferylphosphate. The fluorescence is detected at 450 nm with an excitation of 365 nm, using a Jobin Ivon-Spex Fluoro Max-2 fluorimeter. The alkaline phosphatase activity detected was expressed in units of μmol/mg protein/min."}, "B-lymphoblast (LB) cells": {"tested_on": "B-lymphoblast (LB) cells", "assay": "Proliferation of B-lymphoblast cells", "type": "cell-based, mouse"}, "[3]": {"target": "T1, peroxisome proliferator-activated receptor (PPARγ) system (Homo sapiens, UniProt P37231)", "T1 sequence (P37231 1-505)": "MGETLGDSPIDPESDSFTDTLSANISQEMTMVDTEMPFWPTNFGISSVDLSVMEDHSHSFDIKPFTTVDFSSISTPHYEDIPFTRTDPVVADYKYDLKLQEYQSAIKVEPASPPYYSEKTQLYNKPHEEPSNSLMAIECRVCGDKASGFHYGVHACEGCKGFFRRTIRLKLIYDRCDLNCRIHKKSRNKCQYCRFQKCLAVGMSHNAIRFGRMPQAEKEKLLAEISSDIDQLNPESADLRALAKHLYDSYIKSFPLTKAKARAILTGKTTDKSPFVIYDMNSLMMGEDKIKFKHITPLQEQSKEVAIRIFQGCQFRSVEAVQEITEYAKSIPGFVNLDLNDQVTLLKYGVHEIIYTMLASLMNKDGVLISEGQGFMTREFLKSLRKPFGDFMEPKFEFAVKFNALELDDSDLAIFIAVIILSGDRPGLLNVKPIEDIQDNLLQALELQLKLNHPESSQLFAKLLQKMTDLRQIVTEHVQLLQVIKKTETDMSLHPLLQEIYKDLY", "assay": "Use of the peroxisome proliferator-activated receptor system"}, "HT29 colon cancer cells": {"tested_on": "HT29 colon cancer cells", "assay": "Cellular proliferation and viability of HT29 colon cancer cells", "type": "cell-based, human", "protocol": "Cell Culture Conditions. Human HT 29 colon cancer cells were purchased from the American Type Culture Collection. Cells were maintained in Dulbecco's Modified Eagle's Medium (DME) supplemented with 5% heat-inactivated fetal bovine serum, 2 mM glutamine, and antibiotics (DME/5%). All cell lines were incubated in a humidified 5% CO2/air environment. They were maintained at 37° C. in 5% CO2 covered in aluminum foil to prevent exposure to the light. A total of 1×10^6 cells were incubated per flask and allowed to attach overnight. Media was changed every third day. Cell counts were performed on a Coulter Counter following detachment of cells by standard trypsinization procedures. […] The period of exposure was followed by incubation in the absence of biliverdine. Cell numbers were monitored until proliferation resumed. The production of CEA and alkaline phosphatase was measured as described below.\nThe HT29 colon cancer cells were incubated with different concentrations of biliverdine and their response studied to identify the concentration ranges required to elicit a biological and/or a toxicological response (Table III)."}}, "note": "Where “and” joins values, the source holds several entries; their conditions need not be identical. Equal entries are not always repeated."}
{"smiles": "C=CC1=C(C)/C(=C/C2=NC(=C\\c3[nH]c(/C=C4\\NC(=O)C(C)=C4C=C)c(C)c3CCC(=O)O)/C(CCC(=O)O)=C2C)NC1=O", "note": "[Biliverdin, biliverdin IXα]", "values": [{"measurement": "cells in G2", "setting": "HT 29 Cancer Cells; control 11", "result": 7, "unit": "%"}, {"measurement": "cells in G1", "setting": "HT 29 Cancer Cells; control 42", "result": 63, "unit": "%"}, {"measurement": "cells in S", "setting": "HT 29 Cancer Cells; control 47", "result": 30, "unit": "%"}, {"measurement": "division slower than control", "setting": "[1]", "result": 4.7, "unit": "times"}, {"measurement": "time until proliferation ceases", "setting": "[1]", "result": "six days and 6 days"}, {"measurement": "recovery of proliferative rate", "setting": "[1]; 12-day observation period", "result": "did not recover its proliferative rate at all"}, {"measurement": "day after which division resumes at markedly reduced rate", "setting": "liposarcoma (LS) cells", "result": "> 3", "unit": "days"}, {"measurement": "division slower than control", "setting": "liposarcoma (LS) cells", "result": 3.3, "unit": "times"}, {"measurement": "time until proliferation ceases", "setting": "liposarcoma (LS) cells", "result": "within one day"}, {"measurement": "% Change of TAG", "setting": "[2]", "result": 154, "unit": "%"}, {"measurement": "TAG", "setting": "[2]; control 68", "result": 105, "unit": "µg/10^6 cells"}, {"measurement": "time until proliferation ceases", "setting": "B-lymphoblast (LB) cells", "result": "within one day"}, {"measurement": "time until cell division resumes at nearly the control rate", "setting": "B-lymphoblast (LB) cells; still exposed", "result": "3 to 4", "unit": "days"}, {"measurement": "use of the PPARγ system", "setting": "[3]", "result": "does not use"}, {"measurement": "amount that does not affect cellular survival or proliferation", "setting": "HT29 colon cancer cells; HT29", "result": "lower than 10^−7 M"}, {"measurement": "concentration that causes apoptosis", "setting": "HT29 colon cancer cells; HT29", "result": "≥ 1000", "unit": "nM"}, {"measurement": "concentration with no effect on survival or proliferation", "setting": "HT29 colon cancer cells; HT29", "result": "below 0.1 μM"}, {"measurement": "Effect on cellular proliferation and viability", "setting": "HT29 colon cancer cells; HT29, 0.01 μM", "result": "None"}, {"measurement": "Effect on cellular proliferation and viability", "setting": "HT29 colon cancer cells; HT29, 0.1 μM", "result": "Proliferative Arrest"}, {"measurement": "Effect on cellular proliferation and viability", "setting": "HT29 colon cancer cells; HT29, 0.30 μM", "result": "Proliferative Arrest"}, {"measurement": "Effect on cellular proliferation and viability", "setting": "HT29 colon cancer cells; HT29, 0.40 μM", "result": "Proliferative Arrest"}, {"measurement": "Effect on cellular proliferation and viability", "setting": "HT29 colon cancer cells; HT29, 1.00 μM", "result": "Apoptosis"}, {"measurement": "effect on proliferation", "setting": "HT29 colon cancer cells; HT29, 5 μM, associated decrease of cell numbers in first three days", "result": "arrests proliferation"}, {"measurement": "time until proliferative arrest", "setting": "HT29 colon cancer cells; HT29, 0.1 to 0.4 μM", "result": "≤ 72", "unit": "h"}, {"measurement": "doubling time during exposure", "setting": "HT29 colon cancer cells; HT29, 4×10^−7 M, next 35 days after arrest", "result": 103, "unit": "h"}, {"measurement": "time of exposure until proliferation is arrested", "setting": "HT29 colon cancer cells; HT29, FIG. 9", "result": "≤ 1", "unit": "days"}, {"measurement": "proliferation rate after resumption, fold less than control", "setting": "HT29 colon cancer cells; HT29, after end of exposure", "result": "2-3 fold"}, {"measurement": "reduction of three-day cell number increase compared to controls", "setting": "HT29 colon cancer cells; HT29, treated and released cells", "result": "five-fold reduction"}, {"measurement": "increase of cell number in a three-day period", "setting": "HT29 colon cancer cells; HT29, treated and released cells, control about 15 times", "result": 3.4, "unit": "times"}, {"measurement": "proliferation rate after resumption, relative to control", "setting": "HT29 colon cancer cells; HT29, treatment discontinued day 30, resumption twelve days later", "result": 43, "unit": "%"}, {"measurement": "doubling time after removal of biliverdin", "setting": "HT29 colon cancer cells; HT29, twelve days after removal, control 18 hrs", "result": 41, "unit": "h"}]}
